# Data from paper PMC8804615, “Characterization and comparison of recombinant full‐length ursine and human sex hormone‐binding globulin” (FEBS Open Bio, 2021).
# T1: human SHBG (hSHBG) (Homo sapiens, UniProt P04278)
# T1 construct: homodimer ~94 kDa, glycosylated
# T1 sequence (P04278 30-402): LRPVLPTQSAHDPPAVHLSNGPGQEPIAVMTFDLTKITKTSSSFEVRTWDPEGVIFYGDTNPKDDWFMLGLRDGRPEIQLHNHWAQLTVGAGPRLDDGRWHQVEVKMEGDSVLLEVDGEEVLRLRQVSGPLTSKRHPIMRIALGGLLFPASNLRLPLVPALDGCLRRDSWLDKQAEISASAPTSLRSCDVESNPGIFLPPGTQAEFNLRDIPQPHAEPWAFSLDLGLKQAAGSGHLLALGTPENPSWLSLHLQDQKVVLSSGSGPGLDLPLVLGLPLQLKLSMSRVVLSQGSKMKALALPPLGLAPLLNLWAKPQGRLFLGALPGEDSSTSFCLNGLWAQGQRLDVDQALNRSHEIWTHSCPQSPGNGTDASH
# Legend:
# [1] = target: T1, human SHBG (hSHBG); assay: competition with [3H]DHT, dextran-coated charcoal separation; format: binding; settings: ~6 nM [3H]DHT; data not shown
# [2] = target: T2, ursine SHBG (uSHBG) (Ursus arctos, UniProt Z9D432XYQ2); assay: as above; format: binding; settings: ~6 nM [3H]DHT; data not shown
# T2 construct: homodimer ~93 kDa, glycosylated; 402 aa precursor
# T2 sequence (Z9D432XYQ2 27-402 limits assumed): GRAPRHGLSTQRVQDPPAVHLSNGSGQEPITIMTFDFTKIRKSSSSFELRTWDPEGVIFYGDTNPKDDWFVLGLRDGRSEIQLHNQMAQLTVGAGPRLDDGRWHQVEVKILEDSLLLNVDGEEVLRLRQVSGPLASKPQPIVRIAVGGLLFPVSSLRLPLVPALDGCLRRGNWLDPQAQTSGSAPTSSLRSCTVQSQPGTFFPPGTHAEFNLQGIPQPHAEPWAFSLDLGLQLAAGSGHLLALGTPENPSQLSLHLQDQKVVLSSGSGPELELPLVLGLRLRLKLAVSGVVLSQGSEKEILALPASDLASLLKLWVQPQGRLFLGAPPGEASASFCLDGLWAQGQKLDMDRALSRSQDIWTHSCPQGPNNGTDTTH
# [3] = target: recombinant full-length ursine sex hormone-binding globulin with a C-terminal FLAG tag (Ursus arctos (brown bear)); assay: SEC-MALS; WYATT 30S5 SEC column, 20 mM Tris-HCl, 250 mM NaCl (for the ursine measurements), 1 mM CaCl2, 1 uM DHT, pH 8.0; about 10 ug SHBG injected; dimer
# [4] = target: the molecule itself; assay: SEC-MALS; WYATT 30S5 SEC column, 20 mM Tris-HCl, 150 mM NaCl, 1 mM CaCl2, 1 uM DHT, pH 8.0; about 10 ug SHBG injected; dimer
# [5] = target: the molecule itself; assay: SEC-MALS; native human serum SHBG; WYATT 30S5 SEC column, 20 mM Tris-HCl, 150 mM NaCl, 1 mM CaCl2, 1 uM DHT, pH 8.0; dimer
molecule,measurement,setting,value
C[C@]12C[C@H](O)[C@H]3[C@@H](CCC4=CC(=O)CC[C@@]43C)[C@@H]1CC[C@@H]2C(=O)CO [corticosterone],RBA (DHT = 100%),[1],< 1%
same,RBA (DHT = 100%),[2],< 1%
CC(=O)[C@H]1CC[C@H]2[C@@H]3CCC4=CC(=O)CC[C@]4(C)[C@H]3CC[C@]12C [progesterone],RBA (DHT = 100%),[1],< 1%
same,RBA (DHT = 100%),[2],< 1%
C[C@]12CC[C@H](O)CC1=CC[C@@H]1[C@@H]2CC[C@]2(C)C(=O)CC[C@@H]12 [dehydroepiandrosterone],RBA (DHT = 100%),[1],< 1%
same,RBA (DHT = 100%),[2],< 1%
recombinant full-length ursine sex hormone-binding globulin with a C-terminal FLAG tag (natural protein),stoichiometry N,[3],2
C[C@]12CCC(=O)C=C1CC[C@@H]1[C@@H]2CC[C@]2(C)C(=O)CC[C@@H]12 [androstenedione],RBA (DHT = 100%),[1],< 1%
same,RBA (DHT = 100%),[2],< 1%
C[C@]12CCC(=O)C=C1CC[C@@H]1[C@@H]2CC[C@@]2(C)[C@H]1CC[C@]2(O)C(=O)CO [11‐deoxycortisol],RBA (DHT = 100%),[1],< 1%
same,RBA (DHT = 100%),[2],< 1%
C[C@]12CC[C@H]3[C@@H](CCC4=CC(=O)CC[C@@]43C)[C@@H]1CC[C@@H]2C(=O)CO [deoxycorticosterone],RBA (DHT = 100%),[1],< 1%
"recombinant full-length human sex hormone-binding globulin with a C-terminal FLAG tag (natural protein, UniProt P04278-1 30-402, looked up, glycosylated (insect cell glycans); disulfide Cys164-Cys188 verified by MALDI-ToF MS, precursor of 402 residues expressed with its native signal peptide (29 residues, [residues removed]), which is cleaved on secretion; a second N-terminus one residue shorter (RPVLPTQ...) was also seen by MS. numbers count on: the mature protein; cDNA amplified from human liver total RNA; also called human SHBG; hSHBG; not shown: FLAG, C-terminal, kept) LRPVLPTQSAHDPPAVHLSNGPGQEPIAVMTFDLTKITKTSSSFEVRTWDPEGVIFYGDTNPKDDWFMLGLRDGRPEIQLHNHWAQLTVGAGPRLDDGRWHQVEVKMEGDSVLLEVDGEEVLRLRQVSGPLTSKRHPIMRIALGGLLFPASNLRLPLVPALDGCLRRDSWLDKQAEISASAPTSLRSCDVESNPGIFLPPGTQAEFNLRDIPQPHAEPWAFSLDLGLKQAAGSGHLLALGTPENPSWLSLHLQDQKVVLSSGSGPGLDLPLVLGLPLQLKLSMSRVVLSQGSKMKALALPPLGLAPLLNLWAKPQGRLFLGALPGEDSSTSFCLNGLWAQGQRLDVDQALNRSHEIWTHSCPQSPGNGTDASH",stoichiometry N,[4],2
"native human serum SHBG (natural protein, UniProt P04278-1 30-402, looked up, also called native serum SHBG; SHBG present in human serum) LRPVLPTQSAHDPPAVHLSNGPGQEPIAVMTFDLTKITKTSSSFEVRTWDPEGVIFYGDTNPKDDWFMLGLRDGRPEIQLHNHWAQLTVGAGPRLDDGRWHQVEVKMEGDSVLLEVDGEEVLRLRQVSGPLTSKRHPIMRIALGGLLFPASNLRLPLVPALDGCLRRDSWLDKQAEISASAPTSLRSCDVESNPGIFLPPGTQAEFNLRDIPQPHAEPWAFSLDLGLKQAAGSGHLLALGTPENPSWLSLHLQDQKVVLSSGSGPGLDLPLVLGLPLQLKLSMSRVVLSQGSKMKALALPPLGLAPLLNLWAKPQGRLFLGALPGEDSSTSFCLNGLWAQGQRLDVDQALNRSHEIWTHSCPQSPGNGTDASH",stoichiometry N,[5],2
